Measured values as given in the NIST ThermoML archive (doi:10.1016/j.jct.2013.10.034).

Key:
[1] = Liquid; for viscosity / mass density: 100 kPa; for viscosity: Falling or rolling sphere viscometry; for mass density: Vibrating tube method; for vapor or sublimation pressure: Ebulliometric method (Recirculating still)
[2] = xn = mol fraction of the nth substance listed; details: 100 kPa, Liquid, x2 = 0; for viscosity: Falling or rolling sphere viscometry; for mass density: Vibrating tube method

CCCC[N+]1(C)CCCCC1.N#C[N-]C#N [1-butyl-1-methylpiperidinium dicyanamide]
[1]
Details | mass density [kg/m3] | viscosity [mPa·s]
298.15 K | 1016.13 | 123.3
303.15 K | 1012.98 | 92.97
308.15 K | 1010.65 | 75.58
313.15 K | 1007.92 | 60.93
318.15 K | 1005.2 | 49.79
323.15 K | 1002.47 | 41.31
328.15 K | 999.77 | 34.72
333.15 K | 997.08 | 29.45
338.15 K | 994.39 | 23.31
343.15 K | 991.72 | 21.98

CCCC[N+]1(C)CCCC1.N#CN=C=[N-] [1-butyl-1-methylpyrrolidinium dicyanamide]
[1]
Details | mass density [kg/m3] | viscosity [mPa·s]
298.15 K | 1019.2 | 34.74
303.15 K | 1016.38 | 29.33
308.15 K | 1013.58 | 25.09
313.15 K | 1010.79 | 21.7
318.15 K | 1008 | 18.95
323.15 K | 1005.23 | 16.72
328.15 K | 1002.48 | 14.84
333.15 K | 999.74 | 13.28
338.15 K | 997 | 11.96
343.15 K | 994.28 | 10.82

O [water]
[1]
Details | mass density [kg/m3] | vapor or sublimation pressure [kPa] | viscosity [mPa·s]
298.15 K | – | – | 0.89
303.15 K | – | – | 0.808
308.15 K | – | – | 0.74
313.15 K | 992.15 | – | 0.681
318.15 K | 990.14 | – | 0.63
323.15 K | 987.93 | – | 0.593
328.15 K | 985.61 | 15.8 | 0.56
333.15 K | 983.17 | – | 0.528
338.15 K | 980.3 | 25.1 | 0.5
343.15 K | 978.1 | – | 0.473
348.15 K | – | 38.6 | –
358.15 K | – | 57.9 | –
368.15 K | – | 84.4 | –

O [water] + CCCC[N+]1(C)CCCC1.N#CN=C=[N-]
[2]
Details | mass density [kg/m3] | viscosity [mPa·s]
298.15 K | – | 0.89
303.15 K | – | 0.808
308.15 K | – | 0.74
313.15 K | 992.15 | 0.681
318.15 K | 990.14 | 0.63
323.15 K | 987.93 | 0.593
328.15 K | 985.61 | 0.56
333.15 K | 983.17 | 0.528
338.15 K | 980.3 | 0.5
343.15 K | 978.1 | 0.473

O [water] + CCCC[N+]1(C)CCCCC1.N#C[N-]C#N
[2]
Details | mass density [kg/m3] | viscosity [mPa·s]
298.15 K | – | 0.89
303.15 K | – | 0.808
308.15 K | – | 0.74
313.15 K | 992.15 | 0.681
318.15 K | 990.14 | 0.63
323.15 K | 987.93 | 0.593
328.15 K | 985.61 | 0.56
333.15 K | 983.17 | 0.528
338.15 K | 980.3 | 0.5
343.15 K | 978.1 | 0.473
